“Also recorded” adds a separate entry of the source. Where a name gives a salt, the structure may show the parent alone. Read-outs that look alike come from different tables or passages of the source.
Tests used:
HUVEC [1] = assay: HUVEC cell proliferation assay; assay type: cell-based, human; details: for activity at 10 µM: Homo sapiens, HUVEC, 48 h
Experimental: (§1) Human umbilical vein endothelial cells (HUVEC) were purchased from PromoCell. […] HUVEC and LEC were cultured in endothelial basal medium EBM (Cambrex) supplemented with 20% fetal bovine serum (Invitrogen), antibiotic-antimycotics (100 U/ml penicillin, 100 μg/ml streptomycin, 250 ng/ml amphotericin; Invitrogen). 2 mM L-glutamine (Invitrogen), 10 μg/ml hydrocortisone (Fluka) and 25 μg/ml N^6,2′-O-dibutyryladenosine 3′,5′-cyclic monophosphate sodium salt (Fluka) for up to eleven passages.
(§2) The intensity of fluorescence, which is proportional to the number of viable cells, was measured using a microplate reader (SpectraMax Gemini EM; Molecular Devices). The chemical treatments were performed in five replicates.
(§3) The cell proliferation assays were performed by treating the endothelial cell cultures with compounds at a screening dose of 10 μM in 0.1% DMSO for 48 hours (FIG. 6a; Table 10).

HUVEC [2] = assay: HUVEC tube formation assay; assay type: cell-based, human; details: Homo sapiens, HUVEC
Experimental: as §1
(§4) The effect of the selected chemicals on the formation of tube-like structures was performed as follows. […] After overnight incubation at 37° C. the treated cell cultures were fixed with 4% paraformaldehyde. Each chemical treatment was performed in triplicate and the experiment was repeated at least three times. Three representative images of hotspots with tube-like structures were taken per well using a digital camera (AxioCam MRm, Carl Zeiss) mounted on an inverted microscope (Axiovert 200M, Carl Zeiss). The length of the tube-like structures was measured using the IPLab software (BD Biosciences). For each experimental condition, results are represented as average total tube length (μm) per area (three image fields).
(§5) The effects of the selected compounds on endothelial tube formation was assessed after over treatment of LEC and HUVEC cultures at a compound concentration of 1 μM in 0.1% DMSO. The length of the tube-like structures was measured using the IPLab software.

LEC [3] = assay: LEC cell proliferation assay; assay type: cell-based, human; details: for activity at 10 µM: Homo sapiens, 48 h
Experimental: as §1, §2, §3

LEC [4] = assay: cells; assay type: cell-based, human; details: for activity at 1 µM: Homo sapiens
Experimental: as §1, §4, §5

[5] = tested on: blood vessel development and/or lymphangiogenesis in Xenopus embryos; assay type: in vivo, Xenopus laevis; details: for lymph vessel development phenotype (vegfr3 expression, in words): 20 μM from stage 31, fixed at stage 42; for ALH phenotype: anterior lymph heart; for ALS phenotype: anterior lymph sac; for PLV phenotype: posterior lymph vessels
Outline: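 Albino Xenopus embryos treated at 20 μM final (from 10-mM DMSO stocks) in screening medium, 7 per well, from stage 31 (37 hpf) to stage 35/36 (50 hpf) or 42 (80 hpf). Fixed in 4% paraformaldehyde and scored by whole-mount in situ hybridization: vasculogenesis and intersomitic vein angiogenesis at stage 35/36, lymph vessel development at stage 42.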

Xenopus embryos = details: for Lethality: — = no stage of lethality given; for Type of edema Ventral: ‡ = edemas also detected in the gut; for Onset (NF): onset of edema; for scored in the phenotypic Xenopus screens: known antiangiogenic compounds; for Type of edema Periocular: * = causing bulging eyes, # = bilateral, causing narrow-set eyes
Outline: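 Stage 31 (37 hpf) Xenopus embryos, five per well, exposed to 20 µM compound in 1% DMSO at 23 °C for 4 days. Edema, lethality and other external phenotypes were scored daily by two investigators at stages 39, 41, 45 and 47.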

[6] = tested on: transgenic zebrafish expressing a fluorescent vascular reporter gene; details: Tran et al., 2007, cited from earlier work; for penetration of embryos: highly hydrophilic compounds
[7] = 10 μM in 0.1% DMSO, 48 hours, read-out: HUVEC proliferation
[8] = 1 μM in 0.1% DMSO, overnight, read-out: HUVEC tube formation
[9] = 1 μM in 0.1% DMSO, read-out: HUVEC tube formation (tube length)
[10] = 10 μM in 0.1% DMSO, 48 hours, read-out: LEC proliferation
[11] = 1 μM in 0.1% DMSO, overnight, read-out: LEC tube formation
[12] = 1 μM in 0.1% DMSO, read-out: LEC tube formation (tube length)
[13] = compounds causing edema, 20 μM, 1% DMSO, treatment from stage 31, scored to stage 47
[14] = 20 μM, 1% DMSO, treatment from stage 31, Nieuwkoop & Faber stage
[15] = intersomitic vessels, Xenopus embryos
[16] = posterior cardinal vein, Xenopus embryos
[17] = vitelline vein network, Xenopus embryos

For `COC(=O)C1=C(C)NC(C)=C(C(=O)OCCN(C)Cc2ccccc2)C1c1cccc([N+](=O)[O-])c1` (centres unmarked) [Nicardipine hydrochloride], the activity at 10 µM (HUVEC [1]; [7]) was 85 to 115%, the activity at 1 µM (HUVEC [2]; [8]) was 85 to 115% and the activity at 1 µM (HUVEC [2]; [9]) was 85 to 115%. For the same compound, the activity at 10 µM (LEC [3]; [10]) was 85 to 115%, the activity at 1 µM (LEC [4]; [11]) was 85 to 115% and the activity at 1 µM (LEC [4]; [12]) was 85 to 115%. The “lymph vessel development phenotype (vegfr3 expression, in words)” value ([5]; hydrochloride) was “inhibiting preferentially lymphatic vascular development; also recorded: discontinuatous, dysplastic lymphatic vessels”, the Blood vessel phenotype ([5]; Xenopus embryos) was “normal” and the ALH phenotype ([5]; Xenopus embryos) was “dysplastic”. For the same compound, the ALS phenotype ([5]; Xenopus embryos) was “dysplastic”, the PLV phenotype ([5]; Xenopus embryos) was “hypoplastic” and the “Lethality (NF)” value (Xenopus embryos; [13]) was 45 NF. The “Type of edema Pericordial” value (Xenopus embryos; embryonic stage) was 41/42, the Lethality (Xenopus embryos; embryonic stage) was 45 embryonic stages according to Nieuwkoop and Faber (NF) and the “Type of edema Ventral” value (Xenopus embryos; embryonic stage) was 41/42. For the same compound, the “Onset (NF)” value (Xenopus embryos; [14]) was 41/42.

In the case of `COC(=O)Nc1nc2ccc(C(=O)c3cccs3)cc2[nH]1` [Nocodazole], the activity at 10 µM (HUVEC [1]; [7]) is reported as 65 to 82%, the activity at 1 µM (HUVEC [2]; [8]) is reported as under 50% and the activity at 1 µM (HUVEC [2]; [9]) is reported as under 35%. For the same compound, the activity at 10 µM (LEC [3]; [10]) was 65 to 82%, the activity at 1 µM (LEC [4]; [11]) was under 50% and the activity at 1 µM (LEC [4]; [12]) was under 35%. For the same compound, the “blood vessel development phenotype (apj expression, in words)” value ([5]; 20 μM from stage 31, fixed at stage 35/36) was “interfered with blood vessel vasculogenesis and PCV assembly”, the ISV phenotype [5, 15] was “impaired” and the PCV phenotype [5, 16] was “hypoplastic”. For the same compound, the VVN phenotype [5, 17] was “hypoplastic”, the “Lethality (NF)” value (Xenopus embryos; [13]) was 33/34 and the “Type of edema Pericordial” value (Xenopus embryos; embryonic stage) was 33/34. For the same compound, the Lethality (Xenopus embryos; embryonic stage) was 33/34 and the “Onset (NF)” value (Xenopus embryos; [14]) was 33/34.

Compound `COc1cc([C@@H]2c3cc4c(cc3[C@H](O)[C@H]3COC(=O)[C@H]23)OCO4)cc(OC)c1OC` [Podophyllotoxin] has an activity at 10 µM (HUVEC [1]; read-out: HUVEC proliferation, 10 μM in 0.1% DMSO, 48 hours) of 65 to 82%, an activity at 1 µM (HUVEC [2]; read-out: HUVEC tube formation) of under 50% and an activity at 1 µM (HUVEC [2]; read-out: HUVEC tube formation (tube length)) of under 35%. The activity at 10 µM (LEC [3]; read-out: LEC proliferation, 10 μM in 0.1% DMSO, 48 hours) was 65 to 82%, the activity at 1 µM (LEC [4]; read-out: LEC tube formation) was under 50% and the activity at 1 µM (LEC [4]; read-out: LEC tube formation (tube length)) was under 35%. For the same compound, the ISV phenotype [5, 15] was “impaired”, the PCV phenotype [5, 16] was “hypoplastic” and the VVN phenotype [5, 17] was “hypoplastic”. For the same compound, the “Lethality (NF)” value (Xenopus embryos; [13]) was 41/42, the “Type of edema Pericordial” value (Xenopus embryos; embryonic stage) was 39/40 and the Lethality (Xenopus embryos; embryonic stage) was 41/42. The “Onset (NF)” value (Xenopus embryos; [14]) was 39/40.

For `Cc1cc(C)c(C=C2C(=O)Nc3ccccc32)[nH]1` [SU 5416, 1,3-Dihydro-3-[(3,5-dimethyl-1H-pyrrol-2-yl)methylene]-2H-indol-2-one], the activity at 10 µM (HUVEC [1]; [7]) was 85 to 115%, the activity at 1 µM (HUVEC [2]; [8]) was 85 to 115% and the activity at 10 µM (LEC [3]; [10]) was 85 to 115%. For the same compound, the “effect on LEC tube formation (in words)” value (LEC [4]; 1 μM in 0.1% DMSO) was “preferentially blocked tube formation in LEC rather than HUVEC cultures”, the activity at 1 µM (LEC [4]; [11]) was 50 to 85% and the ISV phenotype ([5]; in vivo) was “impaired”. The PCV phenotype ([5]; in vivo) was “normal”, the VVN phenotype ([5]; in vivo) was “hypoplastic” and the “blood vessel development phenotype (apj expression, in words)” value ([5]; in vivo) was “block ISV outgrowth”. For the same compound, the “edema or other phenotype in compound-treated Xenopus embryos/tadpoles (in words)” value (Xenopus embryos; 20 μM, 1% DMSO, treatment from stage 31) was “causing lethality”, the “scored in the phenotypic Xenopus screens” value (Xenopus embryos; 20 μM) was “active” and the “Lethality (NF)” value (Xenopus embryos; compounds causing lethality, 20 μM, 1% DMSO, treatment from stage 31, Nieuwkoop & Faber stage) was 37/38.

For `CC(C)COC(=O)OCN1C(=O)CN(CCN2CC(=O)N(COC(=O)OCC(C)C)C(=O)C2)CC1=O` [Sobuzoxane, 4,4′-(1,2-Ethanediyl)bis(1-isobutoxycarbonyloxymethyl-2,6-piperazinedione)], the HUVEC proliferation (HUVEC [1]; 10 μM in 0.1% DMSO, 48 hours) was “+ (+, moderate promotion (>115-150% of control).)”, the activity at 10 µM (HUVEC [1]; [7]) was 115 to 150% and the activity at 1 µM (HUVEC [2]; [8]) was 85 to 115%. For the same compound, the activity at 1 µM (HUVEC [2]; [9]) was 85 to 115%, the LEC proliferation (LEC [3]; 10 μM in 0.1% DMSO, 48 hours) was “+ (+, moderate promotion (>115-150% of control).)” and the activity at 10 µM (LEC [3]; [10]) was 115 to 150%. For the same compound, the activity at 1 µM (LEC [4]; [11]) was 85 to 115%, the activity at 1 µM (LEC [4]; [12]) was 85 to 115% and the “lymph vessel development phenotype (vegfr3 expression, in words)” value [5] was “discontinuatous, dysplastic lymphatic vessels”. For the same compound, the Blood vessel phenotype ([5]; Xenopus embryos) was “normal”, the ALH phenotype ([5]; Xenopus embryos) was “dysplastic” and the ALS phenotype ([5]; Xenopus embryos) was “dysplastic”. The PLV phenotype ([5]; Xenopus embryos) was “hypoplastic”, the “Lethality (NF)” value (Xenopus embryos; [13]) was 47 NF and the “Type of edema Proctodeal” value (Xenopus embryos; embryonic stage) was 45 embryonic stages according to Nieuwkoop and Faber (NF). For the same compound, the “Type of edema Pronephric” value (Xenopus embryos; embryonic stage) was 41/42, the “Type of edema Periocular” value (Xenopus embryos; embryonic stage) was 45* embryonic stages according to Nieuwkoop and Faber (NF) and the Lethality (Xenopus embryos; embryonic stage) was 47 embryonic stages according to Nieuwkoop and Faber (NF). The “Type of edema Ventral” value (Xenopus embryos; embryonic stage) was 45 embryonic stages according to Nieuwkoop and Faber (NF) and the “Onset (NF)” value (Xenopus embryos; [14]) was 41/42.

`N#CC(=Cc1ccc(O)c(O)c1)C(=O)Nc1ccccc1` [Tyrphostin AG 494, N-Phenyl-3,4-dihydroxybenzylidenecyanoacetamide] showed an activity at 10 µM (HUVEC [1]; [7]) of 85 to 115%, an activity at 1 µM (HUVEC [2]; [8]) of 85 to 115% and an activity at 10 µM (LEC [3]; [10]) of 85 to 115%. The “effect on LEC tube formation (in words)” value (LEC [4]; 1 μM in 0.1% DMSO) was “preferentially blocked tube formation in LEC rather than HUVEC cultures”, the activity at 1 µM (LEC [4]; [11]) was 50 to 85% and the ISV phenotype [5, 15] was “impaired”. For the same compound, the PCV phenotype [5, 16] was “hypoplastic”, the VVN phenotype [5, 17] was “hypoplastic” and the “Lethality (NF)” value (Xenopus embryos; [13]) was 40 NF. For the same compound, the “Type of edema Pericordial” value (Xenopus embryos; embryonic stage) was 39 embryonic stages according to Nieuwkoop and Faber (NF) and the Lethality (Xenopus embryos; embryonic stage) was 40 embryonic stages according to Nieuwkoop and Faber (NF).

In the case of `COc1cc2ncnc(Nc3cccc(Cl)c3)c2cc1OC` [Tyrphostin AG 1478, N-(3-Chlorophenyl)-6,7-dimethoxy-4-quinazolinamine], the “recovery as antiangiogenic compound in the transgenic zebrafish screen” value [6] is listed as “recovery”, the “scored in the phenotypic Xenopus screens” value (Xenopus embryos; 20 μM) is listed as “active” and the “Lethality (NF)” value (Xenopus embryos; [13]) is listed as 46 NF. The “Type of edema Periocular” value (Xenopus embryos; embryonic stage) was 45 embryonic stages according to Nieuwkoop and Faber (NF), the Cardiac phenotype (Xenopus embryos; embryonic stage, ¶ = the heart chambers were enlarged) was 45¶ embryonic stages according to Nieuwkoop and Faber (NF) and the Lethality (Xenopus embryos; embryonic stage) was 46 embryonic stages according to Nieuwkoop and Faber (NF). For the same compound, the “Type of edema Ventral” value (Xenopus embryos; embryonic stage) was 45 embryonic stages according to Nieuwkoop and Faber (NF).

For `CN(C)c1ccc(O)c2c1C[C@H]1C[C@H]3[C@H](N(C)C)C(O)=C(C(N)=O)C(=O)[C@@]3(O)C(O)=C1C2=O` [minocycline hydrochloride], the penetration of embryos [6] is given as “poorly penetrate embryos”.

For `O=C1CCC(N2C(=O)c3ccccc3C2=O)C(=O)N1` (centres unmarked) [thalidomide], the penetration of embryos [6] is listed as “poorly penetrate embryos”.
